US8729226B2, “Cancer therapy method” (Centro de Ingenieria Genetica y Biotecnologia, priority 2010, dated 2014)

Experiments:
[1] = tested on: HT-29 cell line transiently transfected with GFP-N-COMMD1; experiment: chemosensitivity to 5-FU of transfected HT-29 cells, MTT; assay type: cell-based, human; settings: cells expressing GFP-NCOMMD1 compared to GFP or GFP-COMMD1, 48 hours
Description: (A) The HT-29 cell line transiently transfected with constructs described above were seeded in 96-well plates (Costar) at density of 1×10^4 cells/mL in RPMI 1640 (Gibco) supplemented with fetal calf serum (Gibco) After 24 hours, the cytostatic 5-FU was added to the culture medium in a dose range between 0.025 μM and 2500 μM, in 1:10 serial dilutions. […] Finally, the plate reading at an absorbance of 492 nm was carried out. Each point was performed in duplicate, and experiments were carried out at least twice independently. The IC50 values were obtained from the respective curves of cell proliferation.

HT-29 tumor cells = experiment: combination L552 peptide and cytostatic, MTT, CalcuSyn, HT-29; assay type: cell-based, human
Description: (§1) For this assay, HT-29 and H-125 tumor cells were seeded in 96-well plates (Costar) at a density of 1×10^4 cells mL in RPMI 1640 (Gibco) supplemented with fetal calf serum (Gibco). After 24 hours, the peptide was added to the culture medium in a dose range between 9 μM and 300 μM and the cytostatic drug was added in a range dose of 1:10 serial dilution over and below the reported IC50 for each cell line. […] The effect of concomitant treatment cytostatic-peptide was analyzed by the CalcuSyn computer software to study drug combinations (Ting-Chao Chou, 2006, Pharmacological Reviews, 58: 621-681). […] The combination 5-FU+L552 peptide allows a 20 times reduction (RI) of cytostatic in the HT-29 cell line. For the combination cisplatin+L552 peptide, the cytostatic reduction is 5 times in the H-125 cell line. […] This can reduce the adverse effects associated with chemotherapy.

H-125 tumor cells = experiment: combination L552 peptide and cytostatic, MTT, CalcuSyn, H-125; assay type: cell-based, human
Description: as §1

[2] = tested on: COMMD1 nuclear localization in SW948 cells; experiment: COMMD1 sub-cellular (nuclear) localization in SW948 cells, Western blot; assay type: cell-based, human; settings: peptide 50 μM, 5 hours
Description: (B) SW948 cells (3×10^6 cells) were incubated for 5 hours at 37° C. and 5% CO2 with the L2 peptide (50 μM). Subsequently, cytosolic and nuclear proteins were obtained as reported (Vancurova et al., 2001, Journal of Biological Chemistry, 276: 19746-19752). The COMMD1 detection was performed by Western blot using an anti-COMMD1 antibody. […] Beta Actin was used as a control for the cytoplasmic fraction and the human ribonucleoprotein (hnRNP) as a control of the nuclear fraction.
In this experiment the objective was to identify a peptide with a higher capacity to accumulate COMMD1 in the nucleus of the cells. SW948 cells (3×10^6 cells) were incubated for 5 hours at 37° C. and 5% CO2 with L2, L551, L552, L553 and L554 peptides (50 μM). Subsequently, isolation of cytosolic and nuclear proteins was performed as described in Example 2. COMMD1 detection was performed by Western blot using an anti-COMMD1 antibody. […] Also, the interaction is related to the facilitation of nuclear accumulation of COMMD1.

COMMD1 protein [3] = target: T1, COMMD1 protein (Homo sapiens, UniProt Q8N668); experiment: two-hybrid yeast system, L2 peptide-protein interaction; assay type: binding; parameters: expressed in transfected cells; host or cells: Saccharomyces cerevisiae Y187 (mated with AH109 carrying pGBKL2-1); settings: COMMD1 deletion clones
Description: To identify anti-tumor L2 peptide-protein interactions the two-hybrid yeast system was used. For cloning the sequences corresponding to the peptide the oligonucleotides were designed as follows:
corresponding to the L2 peptide sequence: […] For cloning these sequences in the pGBKT7 NcoI-BamHI vector, sequences complementary to these sites were added at the ends of the oligonucleotides. The pGBKL2-1 recombinant plasmid, which carries the L2 peptide sequence was verified by restriction analysis and sequencing. The plasmid was transformed into the AH109 yeast strain by the lithium acetate method and grown in SD-Trp medium. It was verified that it could not be self-activated when grown on SD-Trp-His plates. For the screening of the interactions, a human liver cDNA library transformed into the Y187 strain was used. For the diploid formation and the selection of interactions, 5×10^8 AH109 cells containing the pGBKL2-1 plasmid were grown with 5×10^8 Y187 cells containing the human liver DNA library, for 4 hours, on solid medium YPDA at 30° C. Ten ml of sterile water were added on the surface of the YPDA plates, and the cells were suspended carefully with spatula and transferred to 15 plates of SD-Trp-Leu-His-Ade minimal media and grown at 30° C. for 7 days. The 74 resulting colonies were transferred to liquid SD-Trp-Leu in 96 deep well plates. […]
Target sequence in this assay (Q8N668 6-190): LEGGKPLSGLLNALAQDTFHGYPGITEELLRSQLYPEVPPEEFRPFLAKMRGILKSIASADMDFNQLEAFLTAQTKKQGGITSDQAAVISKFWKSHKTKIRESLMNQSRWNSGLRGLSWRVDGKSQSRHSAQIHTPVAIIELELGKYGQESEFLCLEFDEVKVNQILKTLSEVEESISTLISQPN

COMMD1 protein [4] = target: T1, COMMD1 protein; experiment: pulldown with biotinylated L2 peptide, SW948 total protein extract, Western blot; assay type: binding; parameters: Total extract protein from SW948 (cell line from human colon carcinoma); endogenous in cells; host or cells: SW948; settings: compared to total protein extract
Description: (A) The synthetic L2 peptide (SEQ ID No. 1), synthesized using a solid phase procedure was biotinylated and used as “bait” attached to a streptavidin sepharose resin. Total extract protein from SW948 (cell line from human colon carcinoma) was used as a “prey”. These experiments are known as “pulldown”. The total extract protein was obtained from […] cells using extraction buffer (Triton X-100 0.5% 25 mM HEPES, pH 7.5, 100 mM NaCl, 1 mM EDTA, 10% glycerol, 1 mM dithiothreitol (DTT), and a protease inhibitor). The biotinylated peptide (300 μg) was incubated with 50 μL of streptavidin sepharose resin (GE Healthcare), for 1 hour, and washed with phosphate buffered saline (PBS 1×) plus 1 mM DTT were done. Then, 500 μL of total proteins were incubated with 50 μL resin containing the biotinylated peptide, at room temperature for 5 hours. Subsequently, the resin is washed extensively with PBS 1× and 1 mM DTT. Proteins remaining attached to the resin are those that interact with the peptide, and are suspended in 25 μL of electrophoresis buffer (62.5 mM Tris HCl, pH 6.9, 0.1 M DTT, 20% sodium dodecyl-sulphate (SDS), 10% glycerol and 0.01% bromophenol blue). To detect the protein of interest a polyacrylamide gel electrophoresis (7.5%) was performed, followed by immunodetection by Western blot. To detect the COMMD1 protein, a monoclonal antibody against COMMD1 protein (Sigma, clone 2A12) was used. […]
Target sequence in this assay (Q8N668 whole entry): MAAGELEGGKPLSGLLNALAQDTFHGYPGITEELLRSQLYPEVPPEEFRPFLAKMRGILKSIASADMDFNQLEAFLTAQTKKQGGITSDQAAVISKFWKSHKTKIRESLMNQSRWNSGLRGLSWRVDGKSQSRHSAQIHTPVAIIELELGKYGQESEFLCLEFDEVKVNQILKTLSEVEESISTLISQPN

**Q.** What does the source list for `O=c1[nH]cc(F)c(=O)[nH]1` [Peptide 5-FU, 5-fluorouracil]?
**A.** IC50 of 5-FU [1]: reduction of the IC50; Drug 5-FU (HT-29 tumor cells; HT-29, at Af 89%): 5000 µM; RI (5-FU) (HT-29 tumor cells; HT-29, reduction index of the drug in combination with L552): 20

**Q.** `N.N.[Cl][Pt][Cl]` [cisplatin] was tested. Which “Drug cisplatin” value (H-125 tumor cells; H-125, at Af 94%) did it give?
**A.** 273 µM

**Q.** And the “RI (cisplatin)” value (H-125 tumor cells; H-125, reduction index of the drug in combination with L552)?
**A.** 5

**Q.** How did the “COMMD1 nuclear localization / accumulation” value [2] turn out when “HARIKPTFRRLKWKYKGKFW [Peptide L2, Peptide previously described in application WO 07/095 867]” was run?
**A.** COMMD1 nuclear localization

**Q.** And the “interaction with COMMD1 (region responsible)” value (COMMD1 protein [3])?
**A.** specifically binds the region between amino acids 110-190

**Q.** What about the “COMMD1 pulled down by the peptide” value (COMMD1 protein [4]) of the same compound?
**A.** concentrates the COMMD1 protein
